Laboratory results: ChEMBL document CHEMBL4507263, “Data for DCP probe BAY-474” (2021)

Assays:
[1] = target: Tyrosine-protein kinase JAK3 (Homo sapiens) (UniProt P52333); settings: Compound concentration 1000.0 nM
[2] = system: Receptor-type tyrosine-protein kinase FLT3 (Homo sapiens), P36888 [R834Q]; settings: Compound concentration 1000.0 nM
[3] = target: Serine/threonine-protein kinase ULK2 (Homo sapiens) (UniProt Q8IYT8); settings: Compound concentration 1000.0 nM
[4] = target: Serine/threonine-protein kinase 17A (Homo sapiens) (UniProt Q9UEE5); settings: Compound concentration 1000.0 nM
[5] = system: Mast/stem cell growth factor receptor Kit (Homo sapiens), P10721 [L576P]; settings: Compound concentration 1000.0 nM
[6] = target: Angiopoietin-1 receptor (Homo sapiens) (UniProt Q02763); settings: Compound concentration 1000.0 nM
Angiopoietin-1 receptor (Homo sapiens), sequence (Q02763 whole entry): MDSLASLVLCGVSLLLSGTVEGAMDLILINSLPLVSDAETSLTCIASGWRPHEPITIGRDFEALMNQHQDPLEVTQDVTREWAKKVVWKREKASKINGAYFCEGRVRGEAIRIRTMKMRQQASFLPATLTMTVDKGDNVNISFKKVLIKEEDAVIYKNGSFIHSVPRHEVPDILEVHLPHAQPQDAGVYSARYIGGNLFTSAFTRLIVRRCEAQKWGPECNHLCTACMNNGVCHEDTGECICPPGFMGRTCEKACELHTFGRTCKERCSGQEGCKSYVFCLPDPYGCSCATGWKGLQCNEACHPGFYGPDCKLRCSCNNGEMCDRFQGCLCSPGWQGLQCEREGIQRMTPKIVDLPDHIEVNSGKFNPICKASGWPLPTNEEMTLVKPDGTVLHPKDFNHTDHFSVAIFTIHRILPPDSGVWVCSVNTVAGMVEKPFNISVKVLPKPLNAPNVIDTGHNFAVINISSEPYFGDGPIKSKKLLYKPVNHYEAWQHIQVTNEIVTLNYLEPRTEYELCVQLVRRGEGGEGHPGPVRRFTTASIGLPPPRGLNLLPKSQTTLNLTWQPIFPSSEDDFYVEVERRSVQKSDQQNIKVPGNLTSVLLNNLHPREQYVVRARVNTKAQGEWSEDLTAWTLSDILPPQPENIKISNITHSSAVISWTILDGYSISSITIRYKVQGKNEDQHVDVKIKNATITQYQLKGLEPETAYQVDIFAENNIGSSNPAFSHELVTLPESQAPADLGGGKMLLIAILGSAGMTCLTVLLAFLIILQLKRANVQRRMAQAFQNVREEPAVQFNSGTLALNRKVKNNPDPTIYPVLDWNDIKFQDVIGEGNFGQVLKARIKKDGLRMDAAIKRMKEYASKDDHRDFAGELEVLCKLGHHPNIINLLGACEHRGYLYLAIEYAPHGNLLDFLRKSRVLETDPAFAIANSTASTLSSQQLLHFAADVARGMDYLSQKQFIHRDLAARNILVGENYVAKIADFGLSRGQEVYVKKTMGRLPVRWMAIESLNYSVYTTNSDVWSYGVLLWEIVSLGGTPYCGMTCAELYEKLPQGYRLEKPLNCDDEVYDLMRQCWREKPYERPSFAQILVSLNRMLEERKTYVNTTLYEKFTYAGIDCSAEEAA

[7] = system: Receptor-type tyrosine-protein kinase FLT3 (Homo sapiens), P36888 [D835H]; settings: Compound concentration 1000.0 nM
[8] = system: Tyrosine-protein kinase ABL1 (Homo sapiens), P00519 [F317I]; settings: Compound concentration 1000.0 nM
[9] = target: Tyrosine-protein kinase JAK2 (Homo sapiens) (UniProt O60674); settings: Compound concentration 1000.0 nM
[10] = target: Activin receptor type-2A (Homo sapiens) (UniProt P27037); settings: Compound concentration 1000.0 nM
Activin receptor type-2A (Homo sapiens), sequence (P27037 whole entry): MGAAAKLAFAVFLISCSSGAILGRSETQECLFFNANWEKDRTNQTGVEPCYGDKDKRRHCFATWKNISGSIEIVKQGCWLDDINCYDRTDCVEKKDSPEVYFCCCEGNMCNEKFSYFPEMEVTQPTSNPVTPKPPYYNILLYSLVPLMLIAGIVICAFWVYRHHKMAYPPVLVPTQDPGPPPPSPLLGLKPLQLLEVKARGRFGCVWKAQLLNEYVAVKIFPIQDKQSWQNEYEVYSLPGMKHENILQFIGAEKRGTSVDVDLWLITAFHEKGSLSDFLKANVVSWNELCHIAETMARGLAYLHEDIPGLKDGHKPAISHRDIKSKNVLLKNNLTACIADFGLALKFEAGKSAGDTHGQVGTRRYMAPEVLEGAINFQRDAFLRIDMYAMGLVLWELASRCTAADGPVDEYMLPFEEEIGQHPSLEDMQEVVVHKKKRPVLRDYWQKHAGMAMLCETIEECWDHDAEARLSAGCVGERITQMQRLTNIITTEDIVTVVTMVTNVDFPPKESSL

[11] = target: Glycogen synthase kinase-3 alpha (Homo sapiens) (UniProt P49840); settings: Compound concentration 1000.0 nM
[12] = target: Maternal embryonic leucine zipper kinase (Homo sapiens) (UniProt Q14680); settings: Compound concentration 1000.0 nM
[13] = target: Calcium-dependent protein kinase 1 (Plasmodium falciparum) (UniProt P62344); settings: Compound concentration 1000.0 nM
[14] = target: Casein kinase I isoform gamma-1 (Homo sapiens) (UniProt Q9HCP0); settings: Compound concentration 1000.0 nM
[15] = target: Cyclin-dependent kinase 11A (Homo sapiens) (UniProt Q9UQ88); settings: Compound concentration 1000.0 nM
[16] = target: Mitogen-activated protein kinase 9 (Homo sapiens) (UniProt P45984); settings: Compound concentration 1000.0 nM
[17] = target: Phosphatidylinositol 4-kinase beta (Homo sapiens) (UniProt Q9UBF8); settings: Compound concentration 1000.0 nM
[18] = target: Mitogen-activated protein kinase kinase kinase 15 (Homo sapiens) (UniProt Q6ZN16); settings: Compound concentration 1000.0 nM
[19] = target: Serine/threonine-protein kinase 38-like (Homo sapiens) (UniProt Q9Y2H1); settings: Compound concentration 1000.0 nM
[20] = target: Misshapen-like kinase 1 (Homo sapiens) (UniProt Q8N4C8); settings: Compound concentration 1000.0 nM
[21] = target: TRAF2 and NCK-interacting protein kinase (Homo sapiens) (UniProt Q9UKE5); settings: Compound concentration 1000.0 nM
[22] = target: Tyrosine-protein kinase CSK (Homo sapiens) (UniProt P41240); settings: Compound concentration 1000.0 nM
[23] = target: Dual specificity testis-specific protein kinase 1 (Homo sapiens) (UniProt Q15569); settings: Compound concentration 1000.0 nM
Dual specificity testis-specific protein kinase 1 (Homo sapiens), sequence (Q15569 whole entry, looked up): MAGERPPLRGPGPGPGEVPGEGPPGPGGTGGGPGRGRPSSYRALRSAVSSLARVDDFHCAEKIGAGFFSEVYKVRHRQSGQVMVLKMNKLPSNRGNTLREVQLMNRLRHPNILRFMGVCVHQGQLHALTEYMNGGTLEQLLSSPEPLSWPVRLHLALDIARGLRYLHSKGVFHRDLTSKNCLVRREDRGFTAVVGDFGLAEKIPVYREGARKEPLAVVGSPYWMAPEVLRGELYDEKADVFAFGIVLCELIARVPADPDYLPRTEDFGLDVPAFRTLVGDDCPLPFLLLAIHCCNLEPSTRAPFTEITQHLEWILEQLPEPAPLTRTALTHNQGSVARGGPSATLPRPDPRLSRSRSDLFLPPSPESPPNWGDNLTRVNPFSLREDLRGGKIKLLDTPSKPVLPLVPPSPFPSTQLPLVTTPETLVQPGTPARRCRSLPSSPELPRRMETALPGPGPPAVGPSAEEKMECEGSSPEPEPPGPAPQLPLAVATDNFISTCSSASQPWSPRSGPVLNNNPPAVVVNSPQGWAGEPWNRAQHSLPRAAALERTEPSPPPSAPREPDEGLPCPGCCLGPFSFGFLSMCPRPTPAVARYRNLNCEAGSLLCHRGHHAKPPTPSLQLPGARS

[24] = target: Serine/threonine-protein kinase B-raf (Homo sapiens) (UniProt P15056); settings: Compound concentration 1000.0 nM
[25] = system: Phosphatidylinositol 4,5-bisphosphate 3-kinase catalytic subunit alpha isoform (Homo sapiens), P42336 [E542K]; settings: Compound concentration 1000.0 nM
[26] = target: Receptor-type tyrosine-protein kinase FLT3 (Homo sapiens) (UniProt P36888); settings: Compound concentration 1000.0 nM
[27] = target: Activin receptor type-1B (Homo sapiens) (UniProt P36896); settings: Compound concentration 1000.0 nM
[28] = system: Serine/threonine-protein kinase B-raf (Homo sapiens), P15056 [V600E]; settings: Compound concentration 1000.0 nM
[29] = target: Histamine H3 receptor (Homo sapiens) (UniProt Q9Y5N1); settings: Compound concentration 10.0 uM
[30] = target: Activated CDC42 kinase 1 (Homo sapiens) (UniProt Q07912); experiment: ACK1 (h) Millipore kinase activity assay; settings: Compound concentration 1.0 uM
[31] = target: Neuropeptide Y receptor type 1 (Homo sapiens) (UniProt P25929); experiment: Inhibition of Neuropeptide Y Y1 at 10 µM in the Eurofins-Panlabs radioligand binding assay (Eurofins_assay_257010); settings: Compound concentration 10.0 uM
[32] = target: Proto-oncogene tyrosine-protein kinase ROS (Homo sapiens) (UniProt P08922); experiment: Ros (h) Millipore kinase activity assay; settings: Compound concentration 1.0 uM
[33] = target: Focal adhesion kinase 1 (Homo sapiens) (UniProt Q05397); experiment: FAK (h) Millipore kinase activity assay; settings: Compound concentration 1.0 uM
[34] = target: Serine/threonine-protein kinase 10 (Homo sapiens) (UniProt O94804); experiment: LOK (h) Millipore kinase activity assay; settings: Compound concentration 1.0 uM
[35] = target: Insulin receptor-related protein (Homo sapiens) (UniProt P14616); experiment: IRR (h) Millipore kinase activity assay; settings: Compound concentration 1.0 uM
[36] = target: RAF proto-oncogene serine/threonine-protein kinase (Homo sapiens) (UniProt P04049); experiment: c-RAF (h) Millipore kinase activity assay; settings: Compound concentration 1.0 uM
[37] = target: Mast/stem cell growth factor receptor Kit (Homo sapiens) (UniProt P10721); experiment: cKit (h) Millipore kinase activity assay; settings: Compound concentration 1.0 uM
[38] = target: Acetylcholine receptor subunit alpha (Homo sapiens) (UniProt P02708); experiment: Inhibition of Nicotinic Acetylcholine D1, Bungarotoxin at 10 µM in the Eurofins-Panlabs radioligand binding assay (Eurofins_assay_258700); settings: Compound concentration 10.0 uM
[39] = target: Serine/threonine-protein kinase BRSK1 (Homo sapiens) (UniProt Q8TDC3); experiment: BrSK1 (h) Millipore kinase activity assay; settings: Compound concentration 1.0 uM
[40] = target: MAP kinase-activated protein kinase 3 (Homo sapiens) (UniProt Q16644); experiment: MAPKAP-K3 (h) Millipore kinase activity assay; settings: Compound concentration 1.0 uM
[41] = target: Mitogen-activated protein kinase 1 (Homo sapiens) (UniProt P28482); experiment: MAPK2( h) Millipore kinase activity assay; settings: Compound concentration 1.0 uM
[42] = target: Serine/threonine-protein kinase D1 (Homo sapiens) (UniProt Q15139); experiment: PKCmu (h) Millipore kinase activity assay; settings: Compound concentration 1.0 uM
[43] = target: Angiopoietin-1 receptor (Homo sapiens) (UniProt Q02763); experiment: Tie2 (h) Millipore kinase activity assay; settings: Compound concentration 1.0 uM
[44] = target: Epidermal growth factor receptor (Homo sapiens) (UniProt P00533); experiment: Inhibition of Epidermal Growth Factor (EGF) at 10 µM in the Eurofins-Panlabs radioligand binding assay (Eurofins_assay_225510); settings: Compound concentration 10.0 uM
Epidermal growth factor receptor (Homo sapiens), sequence (P00533 whole entry): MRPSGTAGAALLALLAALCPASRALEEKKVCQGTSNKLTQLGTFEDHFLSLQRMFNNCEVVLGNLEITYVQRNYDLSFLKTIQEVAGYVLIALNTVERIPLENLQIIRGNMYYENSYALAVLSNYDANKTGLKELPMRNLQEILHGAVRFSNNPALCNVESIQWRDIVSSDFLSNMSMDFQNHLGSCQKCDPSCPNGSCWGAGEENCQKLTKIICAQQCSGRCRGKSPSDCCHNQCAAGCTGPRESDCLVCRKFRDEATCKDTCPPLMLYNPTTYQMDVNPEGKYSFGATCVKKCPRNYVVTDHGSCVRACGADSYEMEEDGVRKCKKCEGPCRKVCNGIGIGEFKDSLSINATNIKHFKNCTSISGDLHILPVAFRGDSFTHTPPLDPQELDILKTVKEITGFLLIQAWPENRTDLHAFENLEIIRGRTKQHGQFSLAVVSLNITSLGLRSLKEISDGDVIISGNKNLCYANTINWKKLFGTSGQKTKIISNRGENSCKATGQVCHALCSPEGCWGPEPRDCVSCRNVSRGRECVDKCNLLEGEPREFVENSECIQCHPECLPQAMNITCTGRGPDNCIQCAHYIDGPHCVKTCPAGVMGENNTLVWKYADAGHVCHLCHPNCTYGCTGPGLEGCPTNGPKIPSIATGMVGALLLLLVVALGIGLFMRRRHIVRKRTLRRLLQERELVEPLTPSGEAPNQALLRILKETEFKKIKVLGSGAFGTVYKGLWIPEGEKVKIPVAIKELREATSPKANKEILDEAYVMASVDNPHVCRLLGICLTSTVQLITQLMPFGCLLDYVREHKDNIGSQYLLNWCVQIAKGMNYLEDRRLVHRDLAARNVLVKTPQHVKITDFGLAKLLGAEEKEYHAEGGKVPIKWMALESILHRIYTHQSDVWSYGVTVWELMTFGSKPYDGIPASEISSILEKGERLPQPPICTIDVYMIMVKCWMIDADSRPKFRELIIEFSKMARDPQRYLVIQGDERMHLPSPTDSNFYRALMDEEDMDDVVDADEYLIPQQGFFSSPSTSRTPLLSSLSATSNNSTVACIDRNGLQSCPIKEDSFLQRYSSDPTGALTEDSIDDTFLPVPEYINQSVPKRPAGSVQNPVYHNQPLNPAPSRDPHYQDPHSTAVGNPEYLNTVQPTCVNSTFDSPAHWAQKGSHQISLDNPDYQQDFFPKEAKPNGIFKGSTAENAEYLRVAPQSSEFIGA

[45] = target: Sigma non-opioid intracellular receptor 1 (Homo sapiens) (UniProt Q99720); experiment: Sigma 1 Eurofins-Panlabs radioligand binding assay; parameters: ligand concentration 8 nM; settings: Compound concentration 10.0 uM
Sigma non-opioid intracellular receptor 1 (Homo sapiens), sequence (Q99720 whole entry): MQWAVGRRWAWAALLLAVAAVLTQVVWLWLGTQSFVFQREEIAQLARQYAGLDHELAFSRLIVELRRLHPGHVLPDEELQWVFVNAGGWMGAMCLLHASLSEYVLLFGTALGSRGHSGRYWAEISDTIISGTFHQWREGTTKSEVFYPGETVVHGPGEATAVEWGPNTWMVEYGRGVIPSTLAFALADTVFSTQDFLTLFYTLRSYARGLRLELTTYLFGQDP

Serine/threonine-protein kinase ULK2 (Homo sapiens), sequence (Q8IYT8 whole entry): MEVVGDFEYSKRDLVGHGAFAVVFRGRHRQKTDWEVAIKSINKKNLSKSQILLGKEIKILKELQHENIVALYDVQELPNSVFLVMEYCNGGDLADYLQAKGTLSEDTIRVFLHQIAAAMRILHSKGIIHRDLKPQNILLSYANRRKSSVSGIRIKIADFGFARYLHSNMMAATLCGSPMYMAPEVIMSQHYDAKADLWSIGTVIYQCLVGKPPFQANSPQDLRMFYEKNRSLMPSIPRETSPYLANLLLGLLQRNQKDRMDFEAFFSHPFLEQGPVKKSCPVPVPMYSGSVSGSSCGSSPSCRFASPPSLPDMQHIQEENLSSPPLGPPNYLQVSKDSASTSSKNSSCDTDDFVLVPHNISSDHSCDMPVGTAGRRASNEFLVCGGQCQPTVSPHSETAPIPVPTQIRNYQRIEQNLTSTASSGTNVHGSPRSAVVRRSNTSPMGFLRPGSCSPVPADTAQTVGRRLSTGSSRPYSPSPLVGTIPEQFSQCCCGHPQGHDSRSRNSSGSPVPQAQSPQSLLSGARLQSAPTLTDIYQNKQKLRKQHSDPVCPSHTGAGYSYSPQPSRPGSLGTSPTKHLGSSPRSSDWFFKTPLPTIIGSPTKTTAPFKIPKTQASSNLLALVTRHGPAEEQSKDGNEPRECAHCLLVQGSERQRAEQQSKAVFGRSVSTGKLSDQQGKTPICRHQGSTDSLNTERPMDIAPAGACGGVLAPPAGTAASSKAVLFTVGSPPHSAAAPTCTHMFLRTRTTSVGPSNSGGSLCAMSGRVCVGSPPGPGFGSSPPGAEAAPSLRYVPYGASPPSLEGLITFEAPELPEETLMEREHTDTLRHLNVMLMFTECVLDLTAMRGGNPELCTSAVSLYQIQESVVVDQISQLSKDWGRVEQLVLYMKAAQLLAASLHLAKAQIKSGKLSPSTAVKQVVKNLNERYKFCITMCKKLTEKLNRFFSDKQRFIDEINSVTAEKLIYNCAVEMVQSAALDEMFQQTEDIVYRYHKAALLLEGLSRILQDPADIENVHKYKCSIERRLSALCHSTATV

CC1=C(C#N)[C@@H](c2ccc3[nH]nc(C)c3c2)C(C#N)=C(c2ccc(Cl)cc2)N1 [BAY-827]
inactive: residual activity [1] 100% | residual activity [2] 100% | residual activity [3] 100% | residual activity [4] 100% | residual activity [5] 100% | residual activity [6] 74.5% | residual activity [7] 100% | residual activity [8] 100% | residual activity [9] 100% | residual activity [10] 100% | residual activity [11] 100% | residual activity [12] 100% | residual activity [13] 100% | residual activity [14] 100% | residual activity [15] 90% | residual activity [16] 89.5% | residual activity [17] 95.1% | residual activity [18] 100% | residual activity [19] 100% | residual activity [20] 77% | residual activity [21] 100% | residual activity [22] 100% | residual activity [23] 100% | residual activity [24] 100% | residual activity [25] 78.6% | residual activity [26] 100% | residual activity [27] 100% | residual activity [28] 100%

CC1=C(C#N)C(c2ccc3[nH]nc(C)c3c2)C(C#N)=C(C)N1 [BAY-474]
inactive: inhibition [29] -3.35% | inhibition [30] 2% | inhibition [31] 1% | inhibition [32] 25% | inhibition [33] 11% | inhibition [34] 26% | inhibition [35] 2% | inhibition [36] 1% | inhibition [37] -7% | inhibition [38] 0% | inhibition [39] 9% | inhibition [40] -5% | inhibition [41] 4% | inhibition [42] 15% | inhibition [43] 10% | inhibition [44] 7% | inhibition [45] 15%
